# Several values for one entry are separate records, joined by “and”; a condition that tells them apart may be missing. Equal entries are not always repeated.
# Key:
# [1] = Tumour pharmacokinetics (released and total AZD4320) in RS4;11 tumours; type: in vivo, C.B-17 SCID mouse
# Source text: For tumour measurements, tumours were harvested, split into smaller pieces and snap frozen in liquid nitrogen. Frozen tumour samples were subsequently weighed and then homogenised for both ‘released’ and ‘total’ AZD4320. For ‘released’ AZD4320, samples were homogenised on ice with an equal volume (w/v) of blank plasma containing 0.2 M citric acid. The samples were then processed according to the aforementioned plasma approach. For ‘total’ AZD4320, samples were homogenised with an equal volume of plasma (w/v) and then processed according to the aforementioned ‘total’ approach.
# Sample analyses were performed in batches containing study samples, calibration standards at 10 concentration levels, QC samples at three concentration levels in duplicate and blank samples. The analytical run acceptance criteria for calibration standards and QC samples was that at least 75% of back-calculated concentrations for calibration standards and at least 2/3 of the QC samples (at least 50% at each concentration level) should be within ±20% (±25% at LLOQ) from nominal value.
# Female C.B.−17 SCID mice were purchased from Charles River Laboratories. Mice were 5–8 weeks old at the time of tumour implantation. All xenograft studies were conducted at our Association for the Assessment and Accreditation of Laboratory Animal Care accredited facility in Waltham, MA in accordance with ethical regulations described in the guidelines established by the internal Institutional Animal Care and Use Committee. The dendrimer conjugates were formulated in citrate/phosphate buffer pH 5.0, diluted 1:10 with 5% glucose containing 1% w/v Kolliphor HS15, and AZD4320 was formulated in 30% HP-β-CD and dosed as a weekly intravenous (IV) administration at a volume of 5 ml/kg at the indicated doses. Five million RS4;11, five million SUDHL-4 or five million OCI-LY-10 cells were injected subcutaneously in the right flank of mice in a volume of 0.1 ml. Tumour volumes (measured by caliper), animal body weight, and tumor condition were recorded twice weekly for the duration of the study. The tumour volume was calculated (taking length to be the longest diameter across the tumour and width to be the corresponding perpendicular diameter) using the formula: length (mm) x width (mm)^2/0.52. For efficacy studies, mice were randomized based on tumour volumes using stratified sampling and enrolled into control and treatment groups. Tumour growth inhibition from the start of treatment was quantified by measuring the difference in tumour volume between control and treated groups. Survival analysis was evaluated using Mantel-Cox test. Tumours were also taken for bioanalysis.
# telemetered dogs = assay: Conscious dog telemetry (QRS amplitude and other cardiovascular parameters, tolerability); conditions: for ECG PR interval / ECG QRS duration / Left ventricular -dP/dt (mmHg/s) / QRS amplitude (% baseline) / Systolic blood pressure (mmHg): 0.2 mg/kg
# [2] = dog 264, 0.5h infusion, -0.75 hours (pre-dose)
# [3] = dog 264, 0.5h infusion, -1 hours (pre-dose)
# [4] = dog 264, 0.5h infusion, -1.25 hours (pre-dose)
# [5] = dog, 0.2 mg/kg 0.5h infusion, 0.5 h
# [6] = dog, 0.2 mg/kg 0.5h infusion, 0.75 h
# [7] = dog, 0.2 mg/kg 0.5h infusion, 1 h
# [8] = dog, 0.2 mg/kg 0.5h infusion, 1.5 h
# [9] = dog, 0.2 mg/kg 0.5h infusion, 2 h
# [10] = dog, 0.2 mg/kg 0.5h infusion, 3 h
# [11] = dog, 0.2 mg/kg 0.5h infusion, 4 h
# [12] = dog, 0.2 mg/kg 0.5h infusion, 6 h
# [13] = dog, 0.2 mg/kg 0.5h infusion, 8 h
# [14] = dog, 0.2 mg/kg 0.5h infusion, 12 h
# [15] = dog, 0.2 mg/kg 0.5h infusion, 16 h
# [16] = dog, 0.2 mg/kg 0.5h infusion, 22 h
# [17] = dog, 0.2 mg/kg 0.5h infusion, -0.75 h
# [18] = dog, 0.2 mg/kg 0.5h infusion, -1 h
structure (smiles),measurement,setting,value
CN(CCO)CCC(CSc1ccccc1)Nc1ccc(S(=O)(=O)NC(=O)c2ccc(N3CCC(C(O)c4ccccc4-c4ccc(Cl)cc4)CC3)cc2)cc1S(=O)(=O)C(F)(F)F (stereo not drawn) [AZD4320],"Tumor PK Released AZD4320, individual tumours","[1]; RS4;11, single dose 10 mg/kg or equivalent, 0.5 h, 10 mg/kg",910 ng/g
same,"Tumor PK Released AZD4320, individual tumours","[1]; RS4;11, single dose 10 mg/kg or equivalent, 1 h, 10 mg/kg",813 ng/g
same,"Tumor PK Released AZD4320, individual tumours","[1]; RS4;11, single dose 10 mg/kg or equivalent, 5 h, 10 mg/kg",1290 ng/g and 307 ng/g
same,"Tumor PK Released AZD4320, individual tumours","[1]; RS4;11, single dose 10 mg/kg or equivalent, 24 h, 10 mg/kg",232 ng/g
same,time of maximum (released) AZD4320 concentration in tumour,"[1]; RS4;11 tumours, 10 mg/kg or equivalent",≤ 0.5 h
same,concentration at 0.5 h,"[1]; female, C.B-17 SCID, mouse, tumour (RS4;11 xenograft), intravenous, 10 mg/kg, RS4;11, single dose 10 mg/kg or equivalent, 0.5 h, read-out: Tumor PK released AZD4320, individual tumours",1360 ng/g
same,concentration at 1 h,"[1]; female, C.B-17 SCID, mouse, tumour (RS4;11 xenograft), intravenous, 10 mg/kg, RS4;11, single dose 10 mg/kg or equivalent, 1 h, read-out: Tumor PK released AZD4320, individual tumours",1220 ng/g
same,concentration at 24 h,"[1]; female, C.B-17 SCID, mouse, tumour (RS4;11 xenograft), intravenous, 10 mg/kg, RS4;11, single dose 10 mg/kg or equivalent, 24 h, read-out: Tumor PK released AZD4320, individual tumours",359 ng/g
same,"NOEL (no observed effect level), cardiovascular system",telemetered dogs; dog,0.2 mg/kg
same,ECG PR interval,telemetered dogs; [2],111 ms
same,ECG QRS duration,telemetered dogs; [2],46 ms
same,Left ventricular -dP/dt (mmHg/s),telemetered dogs; [2],3600 mmHg/s
same,QRS amplitude (% baseline),telemetered dogs; [2],92 % baseline
same,Systolic blood pressure (mmHg),telemetered dogs; [2],151 mmHg
same,ECG PR interval,telemetered dogs; [3],116 ms
same,ECG QRS duration,telemetered dogs; [3],48 ms
same,Left ventricular -dP/dt (mmHg/s),telemetered dogs; [3],3490 mmHg/s
same,QRS amplitude (% baseline),telemetered dogs; [3],71 % baseline
same,Systolic blood pressure (mmHg),telemetered dogs; [3],155 mmHg
same,ECG PR interval,telemetered dogs; [4],111 ms
same,ECG QRS duration,telemetered dogs; [4],47 ms
same,QRS amplitude (% baseline),telemetered dogs; [4],83 % baseline
same,Systolic blood pressure (mmHg),telemetered dogs; [4],145 mmHg
same,ECG PR interval,telemetered dogs; [5],109 ms and 90 ms and 88 ms
same,ECG QRS duration,telemetered dogs; [5],48 ms and 38 ms and 40 ms and 37 ms
same,Left ventricular -dP/dt (mmHg/s),telemetered dogs; [5],3401 mmHg/s and 3547 mmHg/s and 3477 mmHg/s and 4862 mmHg/s
same,QRS amplitude (% baseline),telemetered dogs; [5],105 % baseline and 100 % baseline and 97 % baseline and 101 % baseline
same,Systolic blood pressure (mmHg),telemetered dogs; [5],175 mmHg and 149 mmHg and 155 mmHg and 165 mmHg
same,ECG PR interval,telemetered dogs; [6],113 ms and 82 ms and 85 ms and 87 ms
same,ECG QRS duration,telemetered dogs; [6],49 ms and 37 ms and 40 ms
same,Left ventricular -dP/dt (mmHg/s),telemetered dogs; [6],3504 mmHg/s and 3607 mmHg/s and 3634 mmHg/s and 4976 mmHg/s
same,QRS amplitude (% baseline),telemetered dogs; [6],94 % baseline and 91 % baseline and 92 % baseline
same,Systolic blood pressure (mmHg),telemetered dogs; [6],163 mmHg and 153 mmHg and 156 mmHg and 164 mmHg
same,ECG PR interval,telemetered dogs; [7],116 ms and 88 ms and 93 ms
same,ECG QRS duration,telemetered dogs; [7],47 ms and 38 ms and 40 ms and 37 ms
same,Left ventricular -dP/dt (mmHg/s),telemetered dogs; [7],3285 mmHg/s and 3388 mmHg/s and 2965 mmHg/s and 4801 mmHg/s
same,QRS amplitude (% baseline),telemetered dogs; [7],88 % baseline and 90 % baseline and 92 % baseline and 95 % baseline
same,Systolic blood pressure (mmHg),telemetered dogs; [7],150 mmHg and 144 mmHg and 138 mmHg and 159 mmHg
same,ECG PR interval,telemetered dogs; [8],119 ms and 95 ms and 104 ms and 88 ms
same,ECG QRS duration,telemetered dogs; [8],49 ms and 38 ms and 40 ms and 37 ms
same,Left ventricular -dP/dt (mmHg/s),telemetered dogs; [8],3080 mmHg/s and 3480 mmHg/s and 2336 mmHg/s and 4643 mmHg/s
same,QRS amplitude (% baseline),telemetered dogs; [8],83 % baseline and 97 % baseline and 84 % baseline and 99 % baseline
same,Systolic blood pressure (mmHg),telemetered dogs; [8],135 mmHg and 152 mmHg and 130 mmHg and 156 mmHg
same,ECG PR interval,telemetered dogs; [9],110 ms and 85 ms and 101 ms and 91 ms
same,ECG QRS duration,telemetered dogs; [9],47 ms and 37 ms and 40 ms
same,QRS amplitude (% baseline),telemetered dogs; [9],86 % baseline and 90 % baseline and 91 % baseline and 95 % baseline
same,Systolic blood pressure (mmHg),telemetered dogs; [9],167 mmHg and 155 mmHg and 129 mmHg and 164 mmHg
same,ECG PR interval,telemetered dogs; [10],115 ms and 98 ms and 96 ms and 89 ms
same,ECG QRS duration,telemetered dogs; [10],48 ms and 37 ms and 39 ms and 36 ms
same,Left ventricular -dP/dt (mmHg/s),telemetered dogs; [10],3439 mmHg/s and 3333 mmHg/s and 2944 mmHg/s and 5068 mmHg/s
same,QRS amplitude (% baseline),telemetered dogs; [10],121 % baseline and 94 % baseline and 76 % baseline and 88 % baseline
same,Systolic blood pressure (mmHg),telemetered dogs; [10],164 mmHg and 159 mmHg and 145 mmHg and 170 mmHg
same,ECG PR interval,telemetered dogs; [11],106 ms and 97 ms and 92 ms and 91 ms
same,ECG QRS duration,telemetered dogs; [11],46 ms and 36 ms and 39 ms
same,Left ventricular -dP/dt (mmHg/s),telemetered dogs; [11],3609 mmHg/s and 3205 mmHg/s and 2963 mmHg/s and 4495 mmHg/s
same,QRS amplitude (% baseline),telemetered dogs; [11],97 % baseline and 82 % baseline and 80 % baseline and 89 % baseline
same,Systolic blood pressure (mmHg),telemetered dogs; [11],153 mmHg and 136 mmHg and 139 mmHg and 152 mmHg
same,ECG PR interval,telemetered dogs; [12],96 ms and 86 ms and 89 ms and 67 ms
same,ECG QRS duration,telemetered dogs; [12],48 ms and 37 ms and 39 ms
same,Left ventricular -dP/dt (mmHg/s),telemetered dogs; [12],2830 mmHg/s and 3356 mmHg/s and 3220 mmHg/s and 3767 mmHg/s
same,QRS amplitude (% baseline),telemetered dogs; [12],108 % baseline and 84 % baseline and 81 % baseline and 102 % baseline
same,Systolic blood pressure (mmHg),telemetered dogs; [12],147 mmHg and 145 mmHg and 158 mmHg
same,ECG PR interval,telemetered dogs; [13],98 ms and 88 ms and 86 ms and 73 ms
same,ECG QRS duration,telemetered dogs; [13],48 ms and 37 ms and 39 ms
same,Left ventricular -dP/dt (mmHg/s),telemetered dogs; [13],3465 mmHg/s and 3133 mmHg/s and 2471 mmHg/s and 4567 mmHg/s
same,QRS amplitude (% baseline),telemetered dogs; [13],100 % baseline and 88 % baseline and 97 % baseline and 93 % baseline
same,Systolic blood pressure (mmHg),telemetered dogs; [13],144 mmHg and 140 mmHg and 137 mmHg and 142 mmHg
same,ECG PR interval,telemetered dogs; [14],101 ms and 87 ms and 98 ms and 66 ms
same,ECG QRS duration,telemetered dogs; [14],49 ms and 38 ms and 40 ms and 37 ms
same,Left ventricular -dP/dt (mmHg/s),telemetered dogs; [14],3004 mmHg/s and 2664 mmHg/s and 2608 mmHg/s and 4493 mmHg/s
same,QRS amplitude (% baseline),telemetered dogs; [14],121 % baseline and 90 % baseline and 84 % baseline
same,Systolic blood pressure (mmHg),telemetered dogs; [14],133 mmHg and 131 mmHg and 134 mmHg and 165 mmHg
same,ECG PR interval,telemetered dogs; [15],108 ms and 95 ms and 94 ms and 77 ms
same,ECG QRS duration,telemetered dogs; [15],47 ms and 37 ms and 40 ms
same,Left ventricular -dP/dt (mmHg/s),telemetered dogs; [15],2948 mmHg/s and 3176 mmHg/s and 2965 mmHg/s and 4367 mmHg/s
same,QRS amplitude (% baseline),telemetered dogs; [15],91 % baseline and 93 % baseline and 81 % baseline and 101 % baseline
same,Systolic blood pressure (mmHg),telemetered dogs; [15],151 mmHg and 132 mmHg and 146 mmHg and 164 mmHg
same,ECG PR interval,telemetered dogs; [16],115 ms and 93 ms and 97 ms and 80 ms
same,ECG QRS duration,telemetered dogs; [16],48 ms and 38 ms and 39 ms
same,Left ventricular -dP/dt (mmHg/s),telemetered dogs; [16],3689 mmHg/s and 2854 mmHg/s and 2653 mmHg/s and 4540 mmHg/s
same,QRS amplitude (% baseline),telemetered dogs; [16],114 % baseline and 97 % baseline and 102 % baseline
same,Systolic blood pressure (mmHg),telemetered dogs; [16],156 mmHg and 142 mmHg
same,ECG PR interval,telemetered dogs; [17],90 ms and 106 ms and 89 ms
same,ECG QRS duration,telemetered dogs; [17],37 ms and 40 ms
same,Left ventricular -dP/dt (mmHg/s),telemetered dogs; [17],3499 mmHg/s and 3284 mmHg/s and 4521 mmHg/s
same,QRS amplitude (% baseline),telemetered dogs; [17],97 % baseline and 88 % baseline and 93 % baseline
same,Systolic blood pressure (mmHg),telemetered dogs; [17],168 mmHg and 148 mmHg and 160 mmHg
same,ECG PR interval,telemetered dogs; [18],91 ms and 102 ms and 82 ms
same,ECG QRS duration,telemetered dogs; [18],38 ms and 40 ms and 37 ms
same,Left ventricular -dP/dt (mmHg/s),telemetered dogs; [18],3364 mmHg/s and 3529 mmHg/s and 4819 mmHg/s
same,QRS amplitude (% baseline),telemetered dogs; [18],99 % baseline and 90 % baseline and 93 % baseline
same,Systolic blood pressure (mmHg),telemetered dogs; [18],161 mmHg and 160 mmHg and 157 mmHg
same,ECG PR interval,"telemetered dogs; dog, 0.2 mg/kg 0.5h infusion, -1.25 h",90 ms and 95 ms and 93 ms

# From publication PMC7835349 (Communications Biology, 2021)
